Assay results as given in patent publication US12472193B2, “Methods and compositions for treating and preventing respiratory related diseases and conditions with xylitol-headgroup lipid analogs” (National Jewish Health, priority 2017, dated 2025).
Entries after “also recorded” stand apart in the source; their conditions may differ.

Biological target: T1, TLR 3 (Homo sapiens, UniProt O15455)
T1 construct: endogenous in cells; host or cells: BEAS2B (ATCC)
T1 sequence (O15455 24-904): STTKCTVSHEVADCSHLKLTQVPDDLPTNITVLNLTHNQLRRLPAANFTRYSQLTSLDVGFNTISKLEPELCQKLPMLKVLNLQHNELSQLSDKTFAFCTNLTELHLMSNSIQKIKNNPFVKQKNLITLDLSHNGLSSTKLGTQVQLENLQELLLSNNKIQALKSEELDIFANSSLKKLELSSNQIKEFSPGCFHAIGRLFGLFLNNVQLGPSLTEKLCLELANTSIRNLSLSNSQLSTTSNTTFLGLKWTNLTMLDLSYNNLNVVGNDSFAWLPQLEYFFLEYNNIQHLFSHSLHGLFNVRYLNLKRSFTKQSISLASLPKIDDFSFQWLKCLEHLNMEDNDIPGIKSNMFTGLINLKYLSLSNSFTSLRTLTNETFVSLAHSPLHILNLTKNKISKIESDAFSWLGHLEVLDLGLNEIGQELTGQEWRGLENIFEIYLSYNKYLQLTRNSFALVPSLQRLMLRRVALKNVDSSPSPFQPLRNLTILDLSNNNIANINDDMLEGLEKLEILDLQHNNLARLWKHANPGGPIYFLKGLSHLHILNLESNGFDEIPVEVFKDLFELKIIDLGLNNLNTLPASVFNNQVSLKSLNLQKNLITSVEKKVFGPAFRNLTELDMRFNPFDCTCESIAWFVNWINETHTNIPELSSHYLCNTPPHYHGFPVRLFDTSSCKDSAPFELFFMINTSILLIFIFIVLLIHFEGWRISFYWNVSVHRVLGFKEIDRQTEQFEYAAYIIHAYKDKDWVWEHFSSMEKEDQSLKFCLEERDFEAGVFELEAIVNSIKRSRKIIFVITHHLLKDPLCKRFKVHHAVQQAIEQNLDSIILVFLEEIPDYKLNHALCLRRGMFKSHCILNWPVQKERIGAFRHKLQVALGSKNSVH
Assay: poly I:C-induced IL-8 release by BEAS2B cells (TLR 3 antagonism)
Assay type: cell-based
Conditions: for antagonism of TLR 3 activation (IL-8 release): poly I:C, 200 μg/ml lipid, 48 hours; for TLR3 antagonist activity: reduction in cytokine secretion vs activating TLR ligand alone; for IL-8 release from BEAS2B cells in the absence of poly I:C: lipid alone
Protocol: Human bronchial epithelial cells, BEAS2B, were obtained from ATCC and maintained in bronchial epithelial cell growth medium (BEGM), supplemented with the BulleKit from Lonza in accordance with protocol (M. H. Hudy, S. et al., “Cigarette smoke modulates rhinovirus-induced airway epithelial cell chemokine production.,” Eur. Respir. J., vol. 35, no. 6, pp. 1256-63, June 2010). Cells were cultured at 37 C with 5% carbon dioxide:95% air atmosphere maintained within the incubator. Experiments were conducted in 48-well plates and cells were seated at a density of 5×10^4 per well. After 24 hours, the BEGM medium was replaced with RPMI-1640 medium and incubated for an additional 24 hours. Liposomes were prepared as described above. Each condition for cell stimulation and antagonism was prepared in RPMI medium in a separate tube and consisted of: control (medium alone), TLR agonist, TLR agonist+lipid, and lipid alone. The cells were incubated in […] medium either with or without agonists and antagonists at 37° C. for 48 hours. Subsequently, media were collected, diluted and an enzyme-linked immunosorbent assay (ELISA) was performed to quantify IL-8 release by cells.
The ability of PX lipids to enter the endosomal compartment and modulate immune signaling was next assessed. The human bronchial epithelial cell line, BEAS2B, expresses TLR 3 in its endosomal compartments and is susceptible to infection by respiratory syncytial virus, making this cell line ideal cell line for this study. BEAS2B cells were stimulated with the TLR 3 agonist, poly I:C, in the presence or absence of phospholipid for 48 hours. After incubation, media was collected and IL-8 was quantified as a consequence of TLR 3 activation, and results are summarized in FIG. 5. […] Results from these experiments indicate that xylitol analogs were able to gain entry into BEAS2B cells and inhibit TLR 3 signaling. […] Thus, DMPX, 16:1 DPPX and 18:2 DLPX act as […]

With CCCCCCCC/C=C\CCCCCCCC(=O)O[C@H](COC(=O)CCCCCCCCCCCCCCC)COP(=O)(O)OCC(O)CO (some centres unmarked) [POPG, palmitoyl-oleoyl-phosphatidylglycerol, reference compound] the “antagonism of TLR 3 activation (IL-8 release)” value (“antagonism of TLR 3 activation” below) was “markedly inhibited”.
For CCCCCCCCCCCCCCCC(=O)OCC(COP(=O)(O)OCC(O)C(O)C(O)CO)OC(=O)CCCCCCCCCCCCCCC (centres unmarked) [DPPX, sn-1-palmitoyl, sn-2-palmitoyl sn-3 glycerol phosphoxylitol], the “antagonism of TLR 3 activation” value was “suppressed/inhibited activation of TLR3” and the TLR3 antagonist activity was “+ (cutoff being greater than a 50% reduction in cytokine secretion compared to activating TLR ligand alone)”.
With CCCCCCCCCCCCCC(=O)OC[C@H](COP(=O)(O)OCC(O)C(O)C(O)CO)OC(=O)CCCCCCCCCCCCC (mixture of isomers) [DMPX, sn-1-myristoyl, sn-2-myristoyl sn-3 glycerol phosphoxylitol] the “IL-8 release from BEAS2B cells in the absence of poly I:C” value (“IL-8 release from BEAS2B cells” below) was “elicited an inflammatory response” and the “antagonism of TLR 3 activation” value was “ineffective antagonists of TLR 3”.
CCCCCCC=CCCCCCCCC(=O)OCC(COP(=O)(O)OCC(O)C(O)C(O)CO)OC(=O)CCCCCCCC=CCCCCCC (mixture of isomers) [16:1 DPPX, sn-1-palmitoleoyl, sn-2-palmitoleoyl sn-3 glycerol phosphoxylitol] was tested, and the “IL-8 release from BEAS2B cells” value was “stimulated a robust release of IL-8” and the “antagonism of TLR 3 activation” value was “stimulated a robust release of IL-8; also recorded: ineffective antagonists of TLR 3”.
With CCCCCCCC/C=C\CCCCCCCC(=O)O[C@H](COC(=O)CCCCCCCCCCCCCCC)COP(=O)(O)OCC(O)C(O)C(O)CO (some centres unmarked) [POPX, sn-1-palmitoyl, sn-2-oleoyly sn-3 glycerol phosphoxylitol] the “antagonism of TLR 3 activation” value was “suppressed/inhibited activation of TLR3” and the TLR3 antagonist activity was “+ (cutoff being greater than a 50% reduction in cytokine secretion compared to activating TLR ligand alone)”.
CCCCCCCCC=CCCCCCCCCOCC(COP(=O)(O)OCC(O)C(O)C(O)CO)OCCCCCCCCC=CCCCCCCCC (mixture of isomers) [18:1 DEPX, sn-1-O-octadecenyl, sn-2-O-octadecenyl sn-3 glycerol phosphoxylitol] was tested, and the “antagonism of TLR 3 activation” value was “suppressed/inhibited activation of TLR3” and the TLR3 antagonist activity was “+ (cutoff being greater than a 50% reduction in cytokine secretion compared to activating TLR ligand alone)”.
With CCCCCCCCCCCCCCCCCC(=O)OCC(COP(=O)(O)OCC(O)C(O)C(O)CO)OC(=O)CCCCCCCCCCCCCCCCC (centres unmarked) [DSPX, sn-1-stearoyl, sn-2-stearoyl sn-3 glycerol phosphoxylitol] the “antagonism of TLR 3 activation” value was “suppressed/inhibited activation of TLR3” and the TLR3 antagonist activity was “+ (cutoff being greater than a 50% reduction in cytokine secretion compared to activating TLR ligand alone)”.
In the case of CCCCCCCC/C=C\CCCCCCCC(=O)O[C@H](COC(=O)CCCCCCCCCCCCCCC)COP(=O)([O-])OCC[N+](C)(C)C [POPC, 1-palmitoyl-2-oleoyl-sn-glycero-3-phosphocholine, reference compound], the “antagonism of TLR 3 activation” value is reported as “unaffected”.
In the case of CCCCCCCCC=CCCCCCCCC(=O)OCC(COP(=O)(O)OCC(O)C(O)C(O)CO)OC(=O)CCCCCCCC=CCCCCCCCC (mixture of isomers) [DOPX, sn-1-oleoyl, sn-2-oleoyl sn-3 glycerol phosphoxylitol], the “antagonism of TLR 3 activation” value is reported as “suppressed/inhibited activation of TLR3” and the TLR3 antagonist activity is reported as “+ (cutoff being greater than a 50% reduction in cytokine secretion compared to activating TLR ligand alone)”.
For CCCCCC=CCC=CCCCCCCCC(=O)OCC(COP(=O)(O)OCC(O)C(O)C(O)CO)OC(=O)CCCCCCCC=CCC=CCCCCC (mixture of isomers) [18:2 DLPX, sn-1-linoleoyl, sn-2-linoleoyl sn-3 glycerol phosphoxylitol], the “IL-8 release from BEAS2B cells” value was “elicited an inflammatory response” and the “antagonism of TLR 3 activation” value was “ineffective antagonists of TLR 3”.
In the case of CCCCCCCCCCCCCCOC[C@H](COP(=O)(O)OCC(O)C(O)C(O)CO)OCCCCCCCCCCCCCC (mixture of isomers) [14:0 DEPX, sn-1-O-myristyl, sn-2-O-myristyl sn-3 glycerol phosphoxylitol], the “antagonism of TLR 3 activation” value is reported as “suppressed/inhibited activation of TLR3” and the TLR3 antagonist activity is reported as “+ (cutoff being greater than a 50% reduction in cytokine secretion compared to activating TLR ligand alone)”.
